Earlier results on five molecules are cited in patent US20190187141A1, “Biomarkers for Detection and Treatment of Mast Cell Activity-Associated Disorders” (Arete Discoveries, Inc., priority 2016, published 2019).

Structures can show the parent of a compound that is named as a salt.

For series [1], the system named is mast cells. The following applies: in vitro.
The conditions of series [2]: open label, 20 MS patients.
The conditions of series [3]: phase II study.
Series [4] concerns mast cells.
The conditions of series [5]: phase II trial, 35 progressive MS patients.
For series [6], the system named is mast cells. The following applies: AD animal models; connexin 43 and pannexin1 hemichannel dependent.
The test system of another series is cultured mast cells. The conditions noted are these: pannexin1 hemichannel dependent mechanism.
In series [7] the test system is lymphocytes, macrophages, mast cells and dendritic cells.

Consider `COC(=O)/C=C/C(=O)OC` [dimethyl fumarate], for which the “apoptosis of mast cells” value in the series on mast cells [1] was “induces apoptosis of mast cells in vitro”.
As to `OCCOCCN1CCN(C(c2ccccc2)c2ccc(Cl)cc2)CC1` (centres unmarked) [hydroxyzine], the “degranulation of mast cells within the thalamus” value in the series with EAE (EAE) is recorded as “inhibit”. For the same molecule, the “progression and severity of EAE” value with EAE (in vivo) is “inhibit the progression and severity of EAE”. The “neurological outcome in MS patients” value in series [2] is reported as “stability or improvement neurologically”.
Take `Cc1ccc(NC(=O)c2ccc(CN3CCN(C)CC3)cc2)cc1Nc1nc(-c2cccnc2)cs1` [masitinib]: the “cognitive decline in AD patients” value in [3] was “some benefit in slowing cognitive decline”. Further, the “inhibition of survival, migration and activity of mast cells” value with mast cells [4] was “effectively inhibits the survival, migration and activity of mast cells”. Moreover, the “efficacy in progressive MS” value in series [5] is listed as “some efficacy”.
With “Amyloid beta (Aβ) peptide 25-35 (GSNKGAIIGLM; Amyloid-beta protein 42; UniProt P05067 696-706, looked up, fragment) [amyloid beta peptide fragment 25-35]”, the “mast cell dye uptake and histamine release” value with mast cells [6] was “promotes both connexin 43 and pannexinl hemichannel dependent mast cell dye uptake and histamine release”. Further, in the series on cultured mast cells, the “degranulation of cultured mast cells” value is reported as “causes rapid degranulation of cultured mast cells”.
In the case of `Cc1ccc(NC(=O)c2ccc(CN3CCN(C)CC3)cc2)cc1Nc1nccc(-c2cccnc2)n1` [Imatinib], in series [7], the “secretion of pro-inflammatory cytokines IFN-γ, TNF-α, IL-1β and IL-17 and MMPs” value is “inhibiting”. For the same molecule, the “anti-proliferative activity and immunomodulatory effects” value in series [7] (lymphocytes, macrophages, mast cells and dendritic cells) was “exerts anti-proliferative activity and immunomodulatory effects”.
